Results reported in EPA's ToxValDB 9.5 (doi:10.2903/j.efsa.2014.3353).

What was measured:
[1] = system: Apis mellifera; conditions: acute, duration: 48 hours, mortality
[2] = system: Bibionidae; conditions: chronic/long-term; duration: 28 days; development
[3] = system: Colinus virginianus; conditions: for LD50: acute, oral, mortality
[4] = system: Cyprinodon variegatus; conditions: acute; duration: 96 hours; mortality
[5] = system: Daphnia magna; conditions: chronic/long-term; duration: 21 days; mobility
[6] = system: Oryctolagus sp.; conditions: reproduction developmental; body weight
[7] = system: Pimephales promelas; conditions: chronic/long-term; duration: 28 days; growth
[8] = system: Rattus norvegicus
[9] = system: Tagia sp.; conditions: acute; duration: 14 days; mortality

## COc1cc(OC)nc(NC(=O)NS(=O)(=O)Nc2ccccc2C(=O)N(C)C)n1 [Orthosulfamuron]
[1]; dermal
  LD50: > 100 µg/piece
[1]; oral, unspecified
  LC50: > 109 µg/piece
[2]
  NOEC: 66.9 mg/L
[3]; duration: 5 days, diet
  LD50: > 936 mg/kg-day
[3]
  LD50: > 2000 mg/kg-day
[3]; reproduction developmental, duration: 21 weeks
  NOEC: 112 mg/kg-day
[4]
  LC50: > 123 µg/mL
[5]
  NOEC: 10 mg/L
[6]
  NOAEL: 75 mg/kg-day
[7]
  NOEC: 6.1 mg/L
[8]; acute, oral, mortality
  LD50: > 5000 mg/kg-day
[8]; chronic, duration: 2 years, other
  NOAEL: 5 mg/kg-day
[8]; reproduction developmental, mobility
  NOAEL: 70.8 mg/kg-day
[8]; reproduction developmental, other
  NOAEL: 5 mg/kg-day
[8]; subchronic, duration: 90 days, oral, immunology
  LOAEL: 19 mg/kg-day
[9]
  LC50: > 1000 mg/kg
